Assays:
[1] = system: antioxidant response element (ARE); test: HaCaT cell with antioxidant response element (ARE) reporter gene (luciferase) assay; assay type: cell-based, human; settings: n = 3
Protocol: HaCaT (immortal human keratinocyte) cells (P42) were stored in liquid nitrogen and revived in DMEM containing 10% FBS. The cells were sub-cultured and cryostocks made in 10% DMEM containing 10% DMSO from the first two passages.
To generate a stable cell line, the optimal antibiotic concentration was determined for selecting stable cell colonies. A kill curve was performed using untransfected HaCaT cells to evaluate their hygromycin B sensitivity (as the ARE-luciferase construct to be used for transfection contains the gene for hygromycin B resistance). HaCaT cells were plated in a 24-well tissue culture plate at a cell density of ˜80,000 cells per well. 24 hours later the cells were treated with different concentrations of Hygromycin B (ranging from 100 μg/ml to 800 μg/ml for seven days).
pGL4.37 (luc2P/ARE/Hygro) vector (Promega Cat. No. #E3641) transformed into DH5α competent cells (Invitrogen Cat. No. #18263-012). These were then plated on to an LB-ampicillin plate and kept overnight at 37° C. in an incubator.
The next day, single colonies were picked and inoculated in 5 ml LB Amp medium and kept at 37° C. for 8 hours in a shaker incubator at 250 rpm. The starter culture was then inoculated at 1:100 in 100 ml LB Amp medium. 24 hours later, the culture was harvested and transfection grade plasmid prepared using Sigma's Plasmid Midiprep Kit (Cat. No. #PLD35-1KT).
HaCaT cells were plated in 6-well tissue culture plate at a cell density of 500,000 cells per well. After 24 hours, the cells were transfected with 2 μg of endotoxin-free transfection grade pGL4.37 [luc2P/ARE/Hygro] vector in duplicates using Lipofectamine 2000 Reagent (Invitrogen) as per manufacturer's protocol. After transfection, HaCaT cells were allowed to grow and to express the protein for Hygromycin B resistance under non-selective conditions for 24 hours. One day post transfection cells were treated with Hygromycin B at a concentration of 400 μg/ml to initiate the antibiotic selection pressure. For the selection of stably expressing cells, HaCaT cells were grown in 10% DMEM medium containing 400 μg/ml of Hygromycin B. Under Hygromycin B selective conditions, resistant cells will outgrow non-resistant cells thereby resulting in a polyclonal population of stably-expressing cells. Stably expressing HaCaT cells were fed every 2-3 days with 400 μg/ml Hygromycin B selection medium. After 3 weeks of selection with 400 μg/ml of Hygromycin B medium stable pools were observed on the plate. Individual clones were picked using cloning rings and transferred to 96-well plate and expanded up to T25 cm^2 flask. Out of a dozen individual clones, clone 7 was chosen and validated for expression of luciferase upon treatment with D,L-sulforaphane.
HaCaT_ARE_luc2P_Clone_7 cells were seeded in a 96 well plate at a cell density of ˜7.5×10^3 cells per well. 24 hours later D, L-sulforaphane was added at increasing concentrations (0 μM, 0.2 μM, 0.4 μM, 0.6 μM, 0.8 μM and 1 μM). A standard curve for the luciferase assay was generated for relative light units (RLU) for HaCaT_ARE_Clone_7 cells treated with increasing concentrations of D,L-sulforaphane.
HaCaT_ARE_luc2P_Clone_7 cells were seeded in 96 well plates at a cell density of ˜7,500 cells per well. All test compounds were added to the cells at a final dilution of 1:1000 and the luciferase assay performed.
The following combinations of test compounds were evaluated in the assay: • (a) granilin, an NRF2 agonist, and 22(R)-hydroxycholesterol, a liver X receptor α/β agonist; • (b) granilin and 3-[3-[[[2-chloro-3-(trifluoromethyl)phenyl]methyl](2,2-diphenylethyl) amino]propoxy]benzeneacetic acid hydrochloride (also known as GW 3965 hydrochloride and available from Tocris), a liver X receptor α/β agonist; and • (c) granilin and stigmasterol, a liver X receptor α/β agonist. Results

[2] = system: NADP(H): quinone oxidoreductase (NQO-1); test: NQO-1 gene expression assay of hair follicle cells (real time PCR); assay type: cell-based, human; settings: 24 hour treatment, n = 3
Source text: Temporal or occipital human scalp skin was obtained from subjects undergoing face-lift or hair transplant surgery with informed consent and ethics approval. Anagen VI hair follicles were isolated and maintained according to the method described in Philpott et al (J. Cell Sci 97, 463-471 (1990)). Dhurat et al (Int J Trichology, 2(2), 96-100 (July-December 2010)) describe that anagen is conventionally divided into six stages, Anagen I-V (proanagen), when the hair shaft grows within the hair follicle, and Anagen VI ([…]), when the tip of the hair shaft emerges from the hair follicle. Hair follicles were stabilised in RNAlater (for PCR). Five individual Anagen VI hair follicles were used for each culture condition/patient. […] RNA was extracted using the Qiagen RNeasy Microkit (maximum 5 mg tissue per extraction). […] cDNA was diluted 1:10 in RNase free water. […] Plates were run on an Applied Biosystems StepOnePlusTM Real Time PCR machine. Fast cycling conditions were used, utilising a 2 minute polymerase activation step at 95° C., followed by 45 cycles of denaturing at 95° C. for 1 second, and annealing/extension at 60° C. for 20 seconds. […] Data was analysed by the ΔΔCt methodology The test compounds were sulforaphane, an NRF2 agonist, and 22(R)-hydroxycholesterol, a liver X receptor α/β agonist, and mixtures thereof.

[3] = system: hemeoxygenase-1 (HO-1) protein; test: HO-1 ELISA of lysates of treated HaCaT cells; assay type: cell-based, human; settings: 24 hours, n = 3
Protocol: HaCaT (immortal human keratinocyte) cells (P42) were stored in liquid nitrogen and revived in DMEM containing 10% FBS. The cells were sub-cultured and cryostocks made in 10% DMEM containing 10% DMSO from the first two passages. Cells were routinely plated out in 6-well tissue culture dishes, at a seeding density of ˜5000 cells/cm2 in 2 ml complete medium/well for 24 hours, and incubated at 37° C. in 5% CO2. Test solutions were prepared in ethanol or DMSO and added directly to the cells and treated for 24 hours. The cells were then pelleted. All cell pellets were lysed on ice for 30 minutes in 1 ml cell lysis buffer per 2.5×10^6 cells. The lysis buffer contained 1% NP-40, 0.1% sodium deoxycholate, 0.1% SDS, 6 mM sodium chloride and 0.05 M Tris at pH 7.6. […] Sigma P8340) was added prior to use at a level of 10 μl per ml of lysis buffer. The clarified cell lysate was frozen at −80° C. until needed. The total protein concentration of each cell lysate was measured using the Pierce BCA protein assay kit. […] The reagent solution was prepared according to the kit instructions from 50 parts reagent A and 1 part reagent B. 200 μl of the final reagent was added to each well of the microtitre plate. The plate was mixed, covered and incubated at 37° C. for 30 minutes and absorbance read at 562 nm. A protein standard curve was constructed and used to determine the protein concentration of each cell lysate. HO-1 ELISA (R & D Systems) The hemeoxygenase-1 (HO-1) protein concentration of each cell lysate was assayed using the DuoSet Human Total HO-1/HMOX1 assay (R&D Systems DYC3776) according to the manufacturer's instructions. […] The HO-1 capture antibody was diluted to a concentration of 8 μg/ml in PBS and was bound to the microtitre plate (Greiner Bio-One) overnight at room temperature. The unbound antibody was then removed by washing 3 times with wash buffer (0.05% Tween 20 in PBS) on an automatic plate washer. […] The plate was washed as before. 100 μl of 1/200 diluted streptavidin horseradish peroxidase (HRP) was added to each well and incubated in the dark for 20 minutes at room temperature. The plate was washed as before and then 100 μl of substrate solution (R&D Systems DY999, 1:1 mixture of Colour Reagent A and Colour Reagent B) was added to each well and incubated, in the dark at room temperature, until colour developed (approx 20 minutes). 50 μl of stop solution (2M H2SO4) was applied to each well and the plate read on a microplate reader (Dynex MRX) at 450 nm with wavelength correction set at 540 nm. A standard curve was plotted of mean OD versus HO-1 concentration and the line of best fit calculated by regression analysis. The unknown concentration of HO-1 protein in all the samples was calculated from this. The results were normalised using the total protein data and expressed as ng HO-1 per μg protein. The test compounds were sulforaphane, an NRF2 agonist, and 22(R)-hydroxycholesterol, a liver X receptor α/β agonist, and mixtures thereof.

HO-1 = settings: hair follicles treated with sulforaphane; cited from earlier work

Structure (SMILES) | RLU ([1]; 1 μM single compound) | RLU ([1]; 10 μM single compound) | HO-1 protein (ng HO-1 per μg protein) ([3]; 1 μM single compound) | other results
Cl.O=C(O)Cc1cccc(OCCCN(Cc2cccc(C(F)(F)F)c2Cl)CC(c2ccccc2)c2ccccc2)c1 [GW 3965 hydrochloride, 3-[3-[[[2-chloro-3-(trifluoromethyl)phenyl]methyl](2,2-diphenylethyl)amino]propoxy]benzeneacetic acid hydrochloride] | 1.02 ± 0.02 RLU | 0.63 ± 0.01 RLU |  | 
CC[C@H](/C=C/[C@@H](C)[C@H]1CC[C@H]2[C@@H]3CC=C4C[C@@H](O)CC[C@]4(C)[C@H]3CC[C@]12C)C(C)C [stigmasterol] | 0.78 ± 0.02 RLU | 0.69 ± 0.00 RLU |  | 
C[S+]([O-])CCCCN=C=S (stereo not shown) [sulforaphane] |  |  | 1.910 ± 0.418 ng HO-1 per μg protein | NQO-1 Fold change compared to 18S ([2]; 10 μM): 5.44 ± 0.50 Fold change; HO-1 protein (ng HO-1 per μg protein) ([3]; 0.01 μM single compound): 1.602 ± 0.248 ng HO-1 per μg protein; HO-1 protein (ng HO-1 per μg protein) ([3]; 0.05 μM single compound): 1.600 ± 0.385 ng HO-1 per μg protein; HO-1 in the mesenchymal connective tissue sheath (HO-1): up-regulation of HO-1
CC(C)CC[C@@H](O)[C@@H](C)[C@H]1CC[C@H]2[C@@H]3CC=C4C[C@@H](O)CC[C@]4(C)[C@H]3CC[C@]12C [22(R)-hydroxycholesterol] | 1.17 ± 0.03 RLU | 0.67 ± 0.01 RLU | 1.486 ± 0.387 ng HO-1 per μg protein | NQO-1 Fold change compared to 18S ([2]; 5 μM): 1.04 ± 0.05 Fold change; HO-1 protein (ng HO-1 per μg protein) ([3]; 10 μM single compound): 3.174 ± 0.119 ng HO-1 per μg protein
C=C1C(=O)O[C@@H]2C[C@@]3(C)[C@@H](O)C[C@@H](O)C(=C)[C@@H]3C[C@H]12 [granilin] | 3.77 ± 0.31 RLU |  |  | RLU ([1]; 5 μM single compound): 15.04 ± 0.18 RLU

— patent US10456344B2, “Hair composition” (Conopco, Inc., priority 2014, dated 2019)
